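96-well plates; 48 h exposure; 5 concentrations. Endpoints by linear interpolation between flanking doses. Not reached: highest tested concentration assigned. At the GI50, growth is halved.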 The source made the active and inactive calls. Rule as the data show it: active = GI50 up to about 1.1 µM and inactive = higher.
What was measured:
Assay in all cases: NCI-60 cell line screen, 48 h
[1] = system: SW-620
[2] = system: NCI-H23
[3] = system: DMS-273
[4] = system: NCI-H522
[5] = system: CCRF-CEM
[6] = system: U-251
[7] = system: SF-539
[8] = system: COLO 205
[9] = system: RXF 631
[10] = system: OVCAR-8
[11] = system: SK-OV-3
[12] = system: TK-10
[13] = system: SF-268
[14] = system: K562
[15] = system: A549
[16] = system: HOP-62
[17] = system: A498
[18] = system: OVCAR-4
[19] = system: UO-31
[20] = system: LOX IMVI
[21] = system: IGROV-1
[22] = system: HCT-116
[23] = system: HL-60
[24] = system: EKVX
[25] = system: RXF 393
[26] = system: OVCAR-3
[27] = system: KM12
[28] = system: CAKI-1
[29] = system: SF-295
[30] = system: DMS-114
[31] = system: HCC 2998
[32] = system: SK-MEL-2
[33] = system: SNB-78
[34] = system: M19-MEL
[35] = system: SNB-19
[36] = system: HOP-18
[37] = system: SN12C
[38] = system: XF498
[39] = system: KM-20L2
[40] = system: DLD-1
[41] = system: UACC-62
[42] = system: HOP-92
[43] = system: OVCAR-5
[44] = system: SK-MEL-28
[45] = system: LXFL 529
[46] = system: NCI-H226
[47] = system: Malme-3M
[48] = system: NCI-H460
[49] = system: ACHN
[50] = system: HT-29
[51] = system: SNB-75
[52] = system: 786-0
[53] = system: M14
[54] = system: SK-MEL-5
[55] = system: MOLT-4
[56] = system: UACC-257
[57] = system: HCT-15
[58] = system: SR
[59] = system: RPMI-8226

How did the GI50 [1] turn out when `O=C(/C=C/c1ccccc1)NC1C=Nc2ccc(Cl)cc2NC1=O` (centres undefined) was run?
The GI50 was 7.13 µM (inactive).

What about the GI50 [2] of the same compound?
The GI50 was 27.5 µM (inactive).

And the GI50 [3]?
Its GI50 is 18.2 µM (inactive).

And the GI50 [4]?
The GI50 was 9.64 µM (inactive).

What about the GI50 [5] of the same compound?
The GI50 was 3.52 µM (inactive).

And the GI50 [6]?
Its GI50 is 18.6 µM (inactive).

And the GI50 [7]?
The GI50 was 27.2 µM (inactive).

What about the GI50 [8] of the same compound?
The GI50 was 17.1 µM (inactive).

What about the GI50 [9] of the same compound?
The GI50 was 19.5 µM (inactive).

And the GI50 [10]?
The GI50 was 29.5 µM (inactive).

And the GI50 [11]?
Its GI50 is 25.1 µM (inactive).

And the GI50 [12]?
The GI50 was 36 µM (inactive).

And the GI50 [13]?
Its GI50 is 36.2 µM (inactive).

And the GI50 [14]?
The GI50 was 9.42 µM (inactive).

What about the GI50 [15] of the same compound?
Its GI50 is 28.2 µM (inactive).

And the GI50 [16]?
The GI50 was 47.9 µM (inactive).

What about the GI50 [17] of the same compound?
The GI50 was 21.7 µM (inactive).

What about the GI50 [18] of the same compound?
The GI50 was 20.5 µM (inactive).

And the GI50 [19]?
Its GI50 is 11.8 µM (inactive).

And the GI50 [20]?
The GI50 was 18.8 µM (inactive).

What about the GI50 [21] of the same compound?
Its GI50 is 15 µM (inactive).

And the GI50 [22]?
The GI50 was 22.8 µM (inactive).

What about the GI50 [23] of the same compound?
The GI50 was 5.3 µM (inactive).

What about the GI50 [24] of the same compound?
The GI50 was 31.3 µM (inactive).

What about the GI50 [25] of the same compound?
The GI50 was 16.2 µM (inactive).

And the GI50 [26]?
Its GI50 is 19.5 µM (inactive).

And the GI50 [27]?
The GI50 was 22.2 µM (inactive).

What about the GI50 [28] of the same compound?
The GI50 was 22.6 µM (inactive).

And the GI50 [29]?
The GI50 was 29 µM (inactive).

And the GI50 [30]?
Its GI50 is 5.66 µM (inactive).

And the GI50 [31]?
Its GI50 is 21.2 µM (inactive).

And the GI50 [32]?
Its GI50 is 30.5 µM (inactive).

What about the GI50 [33] of the same compound?
Its GI50 is 53.7 µM (inactive).

What about the GI50 [34] of the same compound?
Its GI50 is 23 µM (inactive).

And the GI50 [35]?
Its GI50 is 29.1 µM (inactive).

What about the GI50 [36] of the same compound?
The GI50 was 20.7 µM (inactive).

What about the GI50 [37] of the same compound?
Its GI50 is 24.8 µM (inactive).

What about the GI50 [38] of the same compound?
The GI50 was 13.3 µM (inactive).

And the GI50 [39]?
The GI50 was 26 µM (inactive).

And the GI50 [40]?
Its GI50 is 20.8 µM (inactive).

What about the GI50 [41] of the same compound?
Its GI50 is 26.2 µM (inactive).

And the GI50 [42]?
The GI50 was 32.2 µM (inactive).

And the GI50 [43]?
The GI50 was 44.5 µM (inactive).

What about the GI50 [44] of the same compound?
The GI50 was 37.9 µM (inactive).

And the GI50 [45]?
The GI50 was 23.9 µM (inactive).

And the GI50 [46]?
Its GI50 is 30.8 µM (inactive).

And the GI50 [47]?
Its GI50 is 26.9 µM (inactive).

And the GI50 [48]?
The GI50 was 20.9 µM (inactive).

And the GI50 [49]?
Its GI50 is 24.1 µM (inactive).

And the GI50 [50]?
Its GI50 is 30 µM (inactive).

And the GI50 [51]?
The GI50 was 15.6 µM (inactive).

And the GI50 [52]?
Its GI50 is 23.2 µM (inactive).

What about the GI50 [53] of the same compound?
The GI50 was 21.9 µM (inactive).

And the GI50 [54]?
Its GI50 is 16.5 µM (inactive).

What about the GI50 [55] of the same compound?
The GI50 was 4.54 µM (inactive).

What about the GI50 [56] of the same compound?
The GI50 was 26.4 µM (inactive).

And the GI50 [57]?
The GI50 was 22.1 µM.

What about the GI50 [58] of the same compound?
Its GI50 is 7.01 µM (inactive).

For `O=C(Nc1cc(Cl)c(Cl)cc1Cl)C(=O)C(C(=O)c1ccccc1)C1OC(=O)c2ccccc21` (centres undefined), which GI50 [1] is on record?
Its GI50 is > 100 µM (inactive).

What about the GI50 [2] of the same compound?
Its GI50 is > 100 µM (inactive).

What about the GI50 [3] of the same compound?
The GI50 was > 100 µM (inactive).

And the GI50 [4]?
Its GI50 is > 100 µM (inactive).

And the GI50 [59]?
Its GI50 is > 100 µM (inactive).

And the GI50 [5]?
The GI50 was > 100 µM (inactive).

What about the GI50 [6] of the same compound?
Its GI50 is > 100 µM (inactive).

What about the GI50 [8] of the same compound?
The GI50 was > 100 µM (inactive).

And the GI50 [9]?
Its GI50 is > 100 µM (inactive).

And the GI50 [10]?
Its GI50 is > 100 µM (inactive).

What about the GI50 [11] of the same compound?
Its GI50 is > 100 µM (inactive).

And the GI50 [12]?
Its GI50 is > 100 µM (inactive).

And the GI50 [13]?
Its GI50 is > 100 µM (inactive).

What about the GI50 [14] of the same compound?
The GI50 was > 100 µM (inactive).

What about the GI50 [15] of the same compound?
The GI50 was > 100 µM (inactive).

What about the GI50 [16] of the same compound?
Its GI50 is > 100 µM (inactive).

And the GI50 [17]?
Its GI50 is > 100 µM (inactive).

And the GI50 [18]?
Its GI50 is > 100 µM (inactive).

What about the GI50 [19] of the same compound?
Its GI50 is > 100 µM (inactive).

And the GI50 [20]?
The GI50 was > 100 µM (inactive).

And the GI50 [21]?
Its GI50 is > 100 µM (inactive).

And the GI50 [22]?
The GI50 was > 100 µM (inactive).

And the GI50 [23]?
The GI50 was > 100 µM (inactive).

What about the GI50 [24] of the same compound?
The GI50 was > 100 µM (inactive).

And the GI50 [25]?
Its GI50 is > 100 µM (inactive).

And the GI50 [26]?
Its GI50 is > 100 µM (inactive).

What about the GI50 [27] of the same compound?
Its GI50 is > 100 µM (inactive).

What about the GI50 [28] of the same compound?
The GI50 was > 100 µM (inactive).

What about the GI50 [29] of the same compound?
Its GI50 is > 100 µM (inactive).

And the GI50 [30]?
Its GI50 is > 100 µM (inactive).

What about the GI50 [31] of the same compound?
Its GI50 is > 100 µM (inactive).

What about the GI50 [33] of the same compound?
Its GI50 is > 100 µM (inactive).

What about the GI50 [34] of the same compound?
The GI50 was > 100 µM (inactive).

What about the GI50 [35] of the same compound?
Its GI50 is > 100 µM (inactive).

What about the GI50 [36] of the same compound?
Its GI50 is 38.3 µM (inactive).

And the GI50 [37]?
Its GI50 is > 100 µM (inactive).

What about the GI50 [38] of the same compound?
Its GI50 is > 100 µM (inactive).

What about the GI50 [39] of the same compound?
Its GI50 is > 100 µM (inactive).

And the GI50 [40]?
Its GI50 is > 100 µM (inactive).

And the GI50 [41]?
The GI50 was > 100 µM (inactive).

And the GI50 [42]?
The GI50 was > 100 µM (inactive).

And the GI50 [43]?
The GI50 was > 100 µM (inactive).

And the GI50 [44]?
The GI50 was > 100 µM (inactive).

What about the GI50 [45] of the same compound?
The GI50 was > 100 µM (inactive).

And the GI50 [46]?
The GI50 was > 100 µM (inactive).

And the GI50 [47]?
The GI50 was > 100 µM (inactive).

What about the GI50 [48] of the same compound?
Its GI50 is > 100 µM (inactive).

What about the GI50 [49] of the same compound?
Its GI50 is > 100 µM (inactive).

What about the GI50 [50] of the same compound?
Its GI50 is > 100 µM (inactive).

What about the GI50 [51] of the same compound?
The GI50 was 17.9 µM (inactive).

What about the GI50 [52] of the same compound?
Its GI50 is > 100 µM (inactive).

And the GI50 [53]?
Its GI50 is > 100 µM (inactive).

What about the GI50 [55] of the same compound?
The GI50 was > 100 µM (inactive).

And the GI50 [56]?
Its GI50 is > 100 µM (inactive).

And the GI50 [57]?
The GI50 was over 100 µM.

And the GI50 [58]?
Its GI50 is 97.7 µM (inactive).

Reference: ChEMBL document CHEMBL1201862, “PubChem BioAssay data set” (2004)
